From article PMC11696576, “Next generation thiazolyl ketone inhibitors of cytosolic phospholipase A2 α for targeted cancer therapy” (Nature Communications, 2025)

Tested on: CCRF-CEM cells
Assay: RNA-Seq differential gene expression
Assay type: cell-based, human
Conditions: for log2(fold change): Upregulated
From the text: Given our findings that the sensitivity to AVX420 was dependent on increased intracellular ROS, we hypothesized that activation of the integrated stress response (ISR) by oxidative damage may be the cause of cell death. The ISR converges on deactivation of the eukaryotic translation initiation factor 2 alpha (eIF2α) to globally suppress translation, with the exception of selected genes (e.g., activating transcription factor (ATF) 4) which activate robust transcriptional changes to restore homeostasis and promote survival or, when oxidative damage is sustained, to initiate programmed cell death. To investigate this, we used a combination of RNA-SEQ and Ribosomal RNA-SEQ (Ribo-SEQ) to measure the global transcriptional and translational response to AVX420 in CCRF-CEM cells. […] Translational effects were determined by calculating the proportion of total transcript associated with the ribosome (ribosomal occupancy (RO)). […] As a positive control we treated cells for 1 hour with the dual mTOR inhibitor Torin-1, which reduced the RO of 20 mRNAs.
CCRF-CEM cells seeded at 200,000 viable cells/mL were treated with AVX420 (0.5 μM) or DMSO (0.1%) and harvested after 1 hour, 6 h, or 16 h. Torin-1 (100 nM) treatment was harvested after 1 h. The flasks were placed on ice and the cell suspensions were transferred to 50 mL conical tubes for centrifugation (405 × g, 4 °C, 5 min). […] The cells were collected and centrifuged at 405 x g for 5 min at 4 °C. The supernatant was discarded, and the cells were suspended in 1 mL of DPBS before centrifugation at 405 x g for 5 min at 4 °C. Resulting cell pellets were snap-frozen in liquid nitrogen and stored at −80 °C. RNA-Seq and ribosome-associated RNA(Ribo)-Seq was performed by Eclipsebio (eclipsebio.com). Protocols are available in the Supplemental Methods section. […]
correction using the Benjamini-Hochberg correction to control the rate of false-posi-tives. Gene sets with false discovery rate <20% were considered significant. […]
RNA-Seq and ribosome-associated RNA(Ribo)-Seq
RNA-Seq and ribosome-associated RNA(Ribo)-Seq was performed by Eclipsebio (eclipsebio.com). The cytosolic fraction of crosslinked cell pellets was isolated and RNA quality and quantity was assessed before 250 ng of the isolated RNA was used to build 3’ RNA-Seq libraries. 10 µg RNA was used for immunoprecipitation (IP) for Ribo-SEQ analysis. Non-crosslinked RNA was removed from the IP through multiple wash steps and the remaining RNA was released via proteinase digestion. RNA from both sources was fragmented and libraries were generated from the poly(A) tails. Li-braries were sequenced on a NextSeq 2 000. After sequencing, samples were pro-cessed with Eclipsebio’s proprietary analysis pipeline (v1). Unique molecular identifi-ers (UMIs) were pruned from read sequences using umitools (v1.1.1). Next 3' adapt-ers were trimmed from reads using cutadapt (v3.2). Reads were then mapped to a cus-tom, curated database of repetitive elements and rRNA sequences. All non -repeat mapped reads were mapped to the genome hg38 using STAR (v2.7.7a) and PCR du-plicates were removed using umi_tools (v1.1.1). Gene coverage was cal culated using Eclipsebio’s proprietary feature counting algorithm and ribosome occupancy was cal-culated by dividing coverage in the ribosome -associated (IP) library by the RNA -Seq library. Differentially expressed and occupied genes were identified using D ESeq2.
Significant differential expression was defined using a cutoff on p.value < 0.01 (after multiple testing adjustment, "padj" metric) and requiring the fold change in gene cov-erage to be greater than 1 or less than -1 (log2 scale). Significance of the ribosomal occupancy (RO) difference was determined by extending DESeq2 models to include RO fold change as an interaction between the experimental condition and the library type. Genes with a RO log2 (fold change) > 1 or < -1 and an adjusted p-value < 0.01 were considered significant. […]

What does the source list for CCCCCCCOc1ccc(OCC(=O)c2nc(C(=O)OC)cs2)cc1 [GK420]?
log2(fold change) (ADM2, 6 h): 1.49; log2(fold change) (ATF3, 6 h): 1.05; changes in gene expression (CCRF-CEM, 0.5 μM, 1 hour): No significant changes; log2FC ADM2 (CCRF-CEM, 0.5 μM, 6 h): 1.49; log2FC ATF3 (CCRF-CEM, 0.5 μM, 6 h): 1.05; log2FC CHAC1 (CCRF-CEM, 0.5 μM, 6 h): 2.25; log2FC DDIT3 (CCRF-CEM, 0.5 μM, 6 h): 1.15; log2FC ENSG00000260498 (CCRF-CEM, 0.5 μM, 6 h): 1.44; log2FC GPT2 (CCRF-CEM, 0.5 μM, 6 h): 1.24; log2FC L3MBTL2-AS1 (CCRF-CEM, 0.5 μM, 6 h): 2.13; log2FC LINC-PINT (CCRF-CEM, 0.5 μM, 6 h): 1.34; log2FC LY9 (CCRF-CEM, 0.5 μM, 6 h): 1.05; log2FC SESN2 (CCRF-CEM, 0.5 μM, 6 h): 1.59; log2FC SLC6A9 (CCRF-CEM, 0.5 μM, 6 h): 1.25; log2FC SLC7A11 (CCRF-CEM, 0.5 μM, 6 h): 1.57; log2FC ULBP1 (CCRF-CEM, 0.5 μM, 6 h): 1.2; log2FC VLDLR (CCRF-CEM, 0.5 μM, 6 h): 1.27; log2FC VLDLR-AS1 (CCRF-CEM, 0.5 μM, 6 h): 1.02; log2FC YAP1 (CCRF-CEM, 0.5 μM, 6 h): 1.04; number of genes upregulated (CCRF-CEM, 0.5 μM, 6 h): 16; number of differentially expressed genes (DEGs) (CCRF-CEM, 0.5 μM, 16 h): 82; log2FoldChange ADM2 (CCRF-CEM, 0.5 μM, 16 hours): 2.31; log2FoldChange AQP3 (CCRF-CEM, 0.5 μM, 16 hours): -1.1; log2FoldChange B4GALNT1 (CCRF-CEM, 0.5 μM, 16 hours): 2.37; log2FoldChange CAMKK1 (CCRF-CEM, 0.5 μM, 16 hours): -1.18; log2FoldChange CAMKV (CCRF-CEM, 0.5 μM, 16 hours): -1.07; log2FoldChange CHAC1 (CCRF-CEM, 0.5 μM, 16 hours): 3.51; log2FoldChange DUSP2 (CCRF-CEM, 0.5 μM, 16 hours): -1.04; log2FoldChange ENSG00000260498 (CCRF-CEM, 0.5 μM, 16 hours): 2.28; log2FoldChange GPT2 (CCRF-CEM, 0.5 μM, 16 hours): 3.48; log2FoldChange HRG (CCRF-CEM, 0.5 μM, 16 hours): 2.92; log2FoldChange IFRD1 (CCRF-CEM, 0.5 μM, 16 hours): 2.08; log2FoldChange L3MBTL2-AS1 (CCRF-CEM, 0.5 μM, 16 hours): 3.01; log2FoldChange LINC02970 (CCRF-CEM, 0.5 μM, 16 hours): 3.49; log2FoldChange LRRTM1 (CCRF-CEM, 0.5 μM, 16 hours): -1.11; log2FoldChange MIR22HG (CCRF-CEM, 0.5 μM, 16 hours): 2.58; log2FoldChange MYT1 (CCRF-CEM, 0.5 μM, 16 hours): -1.13; log2FoldChange NDUFA4L2 (CCRF-CEM, 0.5 μM, 16 hours): 2.19; log2FoldChange NMRAL2P (CCRF-CEM, 0.5 μM, 16 hours): 2.89; log2FoldChange NOL3 (CCRF-CEM, 0.5 μM, 16 hours): 2.29; log2FoldChange OSGIN1 (CCRF-CEM, 0.5 μM, 16 hours): 3.08; log2FoldChange PNMA1 (CCRF-CEM, 0.5 μM, 16 hours): -1.02; log2FoldChange RAG1 (CCRF-CEM, 0.5 μM, 16 hours): -1.12; log2FoldChange RFPL1S (CCRF-CEM, 0.5 μM, 16 hours): 2.61; log2FoldChange RPL23AP42 (CCRF-CEM, 0.5 μM, 16 hours): -2.03; log2FoldChange SESN2 (CCRF-CEM, 0.5 μM, 16 hours): 2.53; log2FoldChange SLC6A9 (CCRF-CEM, 0.5 μM, 16 hours): 2.93; log2FoldChange SLC7A11 (CCRF-CEM, 0.5 μM, 16 hours): 3.42; log2FoldChange THOC3 (CCRF-CEM, 0.5 μM, 16 hours): -1.74; log2FoldChange TM6SF1 (CCRF-CEM, 0.5 μM, 16 hours): 2.49; log2FoldChange VLDLR-AS1 (CCRF-CEM, 0.5 μM, 16 hours): 2.44; log2(fold change) (CHAC1, 6 h): 2.25; log2(fold change) (DDIT3, 6 h): 1.15; log2(fold change) (ENSG00000260498, 6 h): 1.44; log2(fold change) (GPT2, 6 h): 1.24; log2(fold change) (L3MBTL2-AS1, 6 h): 2.13; log2(fold change) (LINC-PINT, 6 h): 1.34; log2(fold change) (LY9, 6 h): 1.05; log2(fold change) (SESN2, 6 h): 1.59; log2(fold change) (SLC6A9, 6 h): 1.25; log2(fold change) (SLC7A11, 6 h): 1.57; log2(fold change) (ULBP1, 6 h): 1.2; log2(fold change) (VLDLR, 6 h): 1.27; log2(fold change) (VLDLR-AS1, 6 h): 1.02; log2(fold change) (YAP1, 6 h): 1.04
